# According to patent publication US9113629B2, “4-amino-6-(4-substituted-phenyl)-picolinates and 6-amino-2-(4-substituted-phenyl)-pyrimidine-4-carboxylates and their use as herbicides” (DOW AGROSCIENCES LLC, priority 2013, dated 2015):
# Read-outs that look alike come from different tables or passages of the source.
# Tests used:
# [1] = test system: Key Broadleaf Weed and Crop Species; test: Post-emergent Test II herbicidal activity (Table 5); format: in vivo; details: post-emergence, 336 h, post-emergent, 14 days after application; for pest or weed control at 70 g/ha: application rate 70 g ai/ha; for pest or weed control at 140 g/ha: application rate 140 g ai/ha
# Outline: (§1)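 Plants grown in Metro-Mix 360 (pH 6.0–6.8) in a greenhouse (~15 h photoperiod, 23–29 °C day) to first or second true leaf stage, then sprayed with compound in acetone/DMSO/aqueous crop-oil-surfactant carrier at 187 L/ha by track sprayer. Injury visually scored 0–100% versus untreated plants after 14 d.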
# [2] = test system: Key Grass and Sedge Weeds as well as Grass Crops; test: Post-emergent Test II herbicidal activity (Table 6); format: in vivo; details: post-emergence, 336 h; for pest or weed control at 70 g/ha: application rate 70 g ai/ha; for pest or weed control at 140 g/ha: application rate 140 g ai/ha
# Outline: as §1
# [3] = ABUTH: velvetleaf (Abutilon theophrasti), read-out: Visual Growth Reduction (%) 14 Days After Application, ABUTH
# [4] = AMARE: redroot pigweed (Amaranthus retroflexus), read-out: Visual Growth Reduction (%) 14 Days After Application, AMARE
# [5] = BRSNN: oilseed-rape, canola (Brassica napus), read-out: Visual Growth Reduction (%) 14 Days After Application, BRSNN
# [6] = CHEAL: lambsquarters (Chenopodium album), read-out: Visual Growth Reduction (%) 14 Days After Application, CHEAL
# [7] = EPHHL: wild poinsettia (Euphorbia heterophylla), read-out: Visual Growth Reduction (%) 14 Days After Application, EPHHL
# [8] = HELAN: sunflower (Helianthus annuus), read-out: Visual Growth Reduction (%) 14 Days After Application, HELAN
# [9] = VIOTR: wild pansy (Viola tricolor), read-out: Visual Growth Reduction (%) 14 Days After Application, VIOTR
# [10] = CYPES: yellow nutsedge (Cyperus esculentus), read-out: Visual Growth Reduction (%) 14 Days After Application, CYPES
# [11] = DIGSA: crabgrass (Digitaria sanguinalis), read-out: Visual Growth Reduction (%) 14 Days After Application, DIGSA
# [12] = ECHCG: barnyardgrass (Echinochloa crus-galli), read-out: Visual Growth Reduction (%) 14 Days After Application, ECHCG
# [13] = ORYSA: rice (Oryza sativa), read-out: Visual Growth Reduction (%) 14 Days After Application, ORYSA
# [14] = SETFA: giant foxtail (Setaria faberi), read-out: Visual Growth Reduction (%) 14 Days After Application, SETFA
# [15] = SORVU: grain sorghum (Sorghum vulgare), read-out: Visual Growth Reduction (%) 14 Days After Application, SORVU
# [16] = TRZSS (wheat, Triticum aestivum), read-out: Visual Growth Reduction (%) 14 Days After Application, TRZSS
# [17] = ZEAMX: maize, corn (Zea mays), read-out: Visual Growth Reduction (%) 14 Days After Application, ZEAMX
smiles,measurement,setting,value
COc1c(N)nc(-c2cc(F)c(C)cc2F)nc1C(=O)O [Compound 201],pest or weed control at 70 g/ha,[1]; [3],30 to 44%
same,pest or weed control at 140 g/ha,[1]; [3],60 to 74%
same,pest or weed control at 70 g/ha,[1]; [4],30 to 44%
same,pest or weed control at 140 g/ha,[1]; [4],60 to 74%
same,pest or weed control at 70 g/ha,[1]; [5],95 to 100%
same,pest or weed control at 140 g/ha,[1]; [5],95 to 100%
same,pest or weed control at 70 g/ha,[1]; [6],85 to 94%
same,pest or weed control at 140 g/ha,[1]; [6],75 to 84%
same,pest or weed control at 70 g/ha,[1]; [7],45 to 59%
same,pest or weed control at 140 g/ha,[1]; [7],85 to 94%
same,pest or weed control at 70 g/ha,[1]; [8],60 to 74%
same,pest or weed control at 140 g/ha,[1]; [8],75 to 84%
same,pest or weed control at 70 g/ha,[1]; [9],0 to 29%
same,pest or weed control at 140 g/ha,[1]; [9],0 to 29%
same,pest or weed control at 70 g/ha,[2]; [10],0 to 29%
same,pest or weed control at 140 g/ha,[2]; [10],0 to 29%
same,pest or weed control at 70 g/ha,[2]; [11],0 to 29%
same,pest or weed control at 140 g/ha,[2]; [11],0 to 29%
same,pest or weed control at 70 g/ha,[2]; [12],60 to 74%
same,pest or weed control at 140 g/ha,[2]; [12],45 to 59%
same,pest or weed control at 70 g/ha,[2]; [13],0 to 29%
same,pest or weed control at 140 g/ha,[2]; [13],0 to 29%
same,pest or weed control at 70 g/ha,[2]; [14],0 to 29%
same,pest or weed control at 140 g/ha,[2]; [14],30 to 44%
same,pest or weed control at 70 g/ha,[2]; [15],0 to 29%
same,pest or weed control at 140 g/ha,[2]; [15],45 to 59%
same,pest or weed control at 70 g/ha,[2]; [16],0 to 29%
same,pest or weed control at 140 g/ha,[2]; [16],0 to 29%
same,pest or weed control at 70 g/ha,[2]; [17],0 to 29%
same,pest or weed control at 140 g/ha,[2]; [17],0 to 29%
same,melting point,,135.9 to 137.7 °C
